Assay results published in PMC9637222, “Autoinducer-2 and bile salts induce c-di-GMP synthesis to repress the T3SS via a T3SS chaperone” (Nature Communications, 2022).
Several values for one entry are separate records, joined by “and”; a condition that tells them apart may be missing. Equal entries are not always repeated. Where two headings read alike, the source gives them in different places.

Columns and labels:
[1] = tested on: SipB-His6 / SicA-HA; test: Co-IP of SipB-His6 with SicA-HA in presence of c-di-GMP; details: dose-dependent
[2] = target: T1, IpgC (WP_000055835) (Shigella flexneri, UniProt P0A2U4); type: binding, S. flexneri serotype 2a; details: for Kd: ITC
T1 construct: His6 (N, cleaved yes); made in house; host or cells: E. coli BL21(DE3), pET-28a (pET28a-ipgC)
T1 sequence (P0A2U4 whole entry): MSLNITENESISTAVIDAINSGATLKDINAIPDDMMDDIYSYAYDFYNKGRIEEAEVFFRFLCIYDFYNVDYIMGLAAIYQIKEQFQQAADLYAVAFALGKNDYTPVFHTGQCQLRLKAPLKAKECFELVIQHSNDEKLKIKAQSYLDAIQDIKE

[3] = target: T2, VcrH (WP_005464462) (Vibrio parahaemolyticus, UniProt Q87P60); type: binding; details: for Kd: ITC
T2 sequence (Q87P60 1-162): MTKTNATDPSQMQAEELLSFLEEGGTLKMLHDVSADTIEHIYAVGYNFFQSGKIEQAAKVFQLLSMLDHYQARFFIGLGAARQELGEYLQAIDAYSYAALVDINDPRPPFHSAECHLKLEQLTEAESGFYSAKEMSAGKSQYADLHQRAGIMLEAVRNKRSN

[4] = target: T3, SicA D28A (Salmonella typhimurium, UniProt P69066, D28A); type: binding, S. Typhimurium
T3 construct: His6 (N, cleaved yes); made in house; host or cells: E. coli BL21(DE3), pET-28a (pET28a-sicAD28A)
T3 sequence (P69066 whole entry D28A): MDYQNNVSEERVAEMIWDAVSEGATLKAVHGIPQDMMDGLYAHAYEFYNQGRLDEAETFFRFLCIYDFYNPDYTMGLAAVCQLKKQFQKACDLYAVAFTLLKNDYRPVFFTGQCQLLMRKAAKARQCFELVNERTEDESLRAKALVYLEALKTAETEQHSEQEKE

[5] = range given for all 6 chaperones (PcrH, IpgC, SycD, CesD, BicA, VcrH), read-out: Kd

Nc1nc2c(ncn2C2OC3COP(=O)(O)OC4C(COP(=O)(O)OC3C2O)OC(n2cnc3c(=O)[nH]c(N)nc32)C4O)c(=O)[nH]1 (stereo not drawn) [c-di-GMP, Cyclic di-GMP] was tested, and the “Effect on co-IP of SipB-His6 with SicA-HA (in words)” value [1] was “decreased”, the “n, c-di-GMP binding to IpgC” value ([2]; ITC binding stoichiometry n, individual replicates, Supplementary Figure 22b) was 1.23 and 1.10 and 1.13 and the Kd ([2]; individual replicates, Supplementary Figure 22b, read-out: Kd, c-di-GMP binding to IpgC) was 200 nM and 250 nM and 220 nM. The Kd [2, 5] was 150 to 220 nM, the “n, c-di-GMP binding to VcrH” value ([3]; ITC binding stoichiometry n, individual replicates, Supplementary Figure 22f) was 1.12 and 1.10 and the Kd ([3]; individual replicates, Supplementary Figure 22f, read-out: Kd, c-di-GMP binding to VcrH) was 140 nM and 160 nM. The Kd [3, 5] was 150 to 220 nM, the “n, c-di-GMP binding to SicAD28A” value ([4]; ITC binding stoichiometry n, individual replicates, Supplementary Figure 17b) was 1.08 and 1.02 and 0.98 and the Kd ([4]; binding to SicA D28A) was 21000 nM and 26000 nM and 20000 nM.
